Measurements: US20100041103A1, “COMPOSITION AND METHOD FOR ENHANCING CELL GROWTH AND CELL FUSION” (DO-COOP TECHNOLOGIES LTD., priority 2007, published 2010)
Counter-ions that a name gives are not always drawn. Ends that are not written are not given here.

Tests used:
[1] = Dissolving CD-Dau, Daunorubicine and t-boc (Example 9); type: physicochemical
Method: 5 different glass vials were prepared: • 1. 5 mg CD-Dau+1.2 ml Neowater™. • 2. 1.8 mg CD-Dau+600 μl acetone. • 3. 1.8 mg CD-Dau+150 μl acetone+450 μl Neowater™ (25% acetone). • 4. 1.8 mg CD-Dau+600 μl 10% *PEG (Polyethylene Glycol). • 5. 1.8 mg CD-Dau+600 μl acetone+600 μl Neowater™.
The samples were vortexed and spectrophotometer measurements were performed on vials #1, 4 and 5
The vials were left opened in order to evaporate the acetone (vials #2, 3, and 5).
2 mg Daunorubicine+1 ml Neowater™ was prepared in one vial and 2 mg of Daunorubicine+1 ml RO was prepared in a second vial.
1.14 ml of EtOH was added to one glass vial containing 18.5 mg of t-boc (an oily material). This was then divided into two vials and 1.74 ml Neowater™ or RO water was added to the vials such that the solution comprised 25% EtOH. Following spectrophotometer measurements, the solvent was evaporated from the solution and Neowater™ was added to both vials to a final volume of 2.31 ml in each vial. The solutions in the two vials were merged to one clean vial and packaged for shipment under vacuum conditions.

[2] = cited from earlier work
[3] = Dissolving retinol in Neowater, absorbance and filtration (Example 12); type: physicochemical
Method: Retinol (vitamin A) was purchased from Sigma (Fluka, 99% HPLC). Retinol was solubilized in Neowater™ under the following conditions.
1% retinol (0.01 gr in 1 ml) in EtOH and Neowater™
0.5% retinol (0.005 gr in 1 ml) in EtOH and Neowater™
0.5% retinol (0.125 gr in 25 ml) in EtOH and Neowater™.
0.25% retinol (0.0625 gr in 25 ml) in EtOH and Neowater™. Final EtOH concentration: 1.5%
Absorbance spectrum of retinol in EtOM: Retinol solutions were made in absolute EtOH, with different retinol concentrations, in order to create a calibration graph; absorbance spectrum was detected in a spectrophotometer.
2 solutions with 0.25% and 0.5% retinol in Neowater with unknown concentration of EtOH were detected in a spectrophotometer. Actual concentration of retinol is also unknown since some oil drops are not dissolved in the water.
Filtration: 2 solutions of 0.25% retinol in Neowater™ were prepared, with a final EtOH concentration of 1.5%.The solutions were filtrated in […] filter.

[4] = Solubilization of taxol in DMSO or Neowater with 17% EtOH (Example 15); type: physicochemical; details: 0.5 mM; Neowater with 17% EtOH
Method: Solubilization: 0.5 mM Taxol solution was prepared (0.0017 gr in 4 ml) in either DMSO or Neowater™ with 17% EtOH. Absorbance was detected with a spectrophotometer.

293T cells = experiment: Cell viability assay, trypan blue count after taxol; type: cell-based; details: taxol dissolved in Neowater, 1.666 μM, 24 hour treatment
Method: Cell viability assay: 150,000 293T cells were seeded in a 6 well plate with 3 ml of DMEM medium. Each treatment was grown in DMEM medium based on RO or Neowater™. […] The cells were harvested following a 24 hour treatment with taxol and counted using trypan blue solution to detect dead cells.

[5] = Taxol in Neowater by slow solvent exchange, spectrophotometry and HPLC after storage (Example 18); type: physicochemical; details: taxol dispersed in Neowater, 6 month storage at −20° C., HPLC
Method: Solubilization: 0.5 mM Taxol solution was prepared (0.0017 gr in 4 ml). Taxol was dissolved in ethanol and exchanged to Neowater™ using an RT slow solvent exchange procedure which extended for 20 days. […] The solution was sterilized using a 0.2 μm filter. Taxol was separately prepared in DMSO (0.5 mM). Both solutions were kept at −20° C. Absorbance was detected with a spectrophotometer.

[6] = Solubilization of peptides in Neowater (Example 11); type: physicochemical; details: at 0.5 mM
Source text: Spectrophotometric measurements were taken.

## COc1cccc2c1C(=O)c1c(O)c3c(c(O)c1C2=O)C[C@@](O)(C(C)=O)C[C@@H]3O[C@H]1C[C@H](N)[C@H](O)[C@H](C)O1 [Daunorubicine, Cerubidine hydrochloride]
[1]; 2 mg in 1 ml
  dissolving in Neowater and RO: dissolves without difficulty
[2]
  solubility in water (known): known not to dissolve in water

## CC1=C(/C=C/C(C)=C/C=C/C(C)=C/CO)C(C)(C)CCC1 [Retinol]
[3]; 0.25% retinol in Neowater, 1.5% EtOH, filtered (0.44 and 0.2 filter)
  retinol in the solutions following filtration: less than 0.03125%
[3]; nominal 0.25% retinol in Neowater
  retinol concentration in EtOH with similar absorbance pattern: ~0.03125%
[3]; nominal 0.5% retinol in Neowater
  retinol concentration in EtOH with similar absorbance pattern: ~0.125%

## CC(=O)O[C@H]1C(=O)[C@@]2(C)[C@H]([C@H](OC(=O)c3ccccc3)[C@]3(O)C[C@H](OC(=O)[C@H](O)[C@@H](NC(=O)c4ccccc4)c4ccccc4)C(C)=C1C3(C)C)[C@]1(OC(C)=O)CO[C@@H]1C[C@@H]2O [Taxol, Paclitaxel]
[4]
  dissolving in DMSO and Neowater: dissolved both in DMSO and Neowater™
293T cells
  cytotoxic effect: comprised a cytotoxic effect
[5]
  structural changes of the formulation on storage: no structural changes

## Daidzein—daunomycin conjugate [CD-Dau]
[1]; 1.8 mg + 150 μl acetone + 450 μl Neowater
  dissolving, Vial #3 (25% acetone): didn't dissolve very well
[1]; 1.8 mg + 600 μl 10% PEG
  dissolving, Vial #4 (10% PEG+Neowater): dissolved better than the CD-Dau in vial #1
[1]; 1.8 mg + 600 μl acetone
  dissolving, Vial #2 (100% acetone): suspended inside the acetone
[1]; 1.8 mg + 600 μl acetone + 600 μl Neowater, as the acetone evaporated
  dissolving, Vial #5 (acetone exchanged for Neowater): partially sediment to the bottom of the vial
[1]; 5 mg + 1.2 ml Neowater
  dissolving, Vial #1 (100% Neowater): sedimented after a few hours
[2]
  solubility in water (known): known not to dissolve in water

## PFPSYKLRPG-NH2
[6]
  dissolving in Neowater: dissolved
